Broadly, the ED50 is the midpoint of the dose-response relation.

The subject of the first assay is passive cutaneous anaphylaxis (PCA). The assay is described as follows: Inhibition of passive cutaneous anaphylaxis (PCA test) in rats. The format is in vivo. As to conditions: Rattus norvegicus, po, 10 minutes before intraperitoneal ovoalbumin and Evans blue, blue spot diameter after 30 minutes, read-out: P.C.A. Inhibition ED50. How it is done:
For example, the substances have an inhibiting action on the release of endogenic mediators, from mast cells or basophilic leucocytes, which leads to allergic reactions. The doses to be used vary, of course, depending upon the nature of the substance used, upon the mode of administration and upon the condition to be treated. In general, however, satisfactory results are obtained in animal experiments with peroral doses of between 0.05 and 75 mg. per kg. of body weight. Thus, the new compounds have a specific inhibiting action in the PCA test (passive cutaneous anaphylaxis)in rats which is described below.
Description of the test method to determine the inhibition of passive cutaneous anaphylasis (PCA test, see Arch.int.pharmacology 252 (1981) 316-326)
To prepare the IgE-antiovoalbumin serum, used in this test, by the method of Mota (Immunology 7, (1964) 681) and J. Goose (Immunology 16 (1969) 749), male Wistar rats of 200-250 g. body weight were sensitised by subcutaneous injection of 1 mg. of ovoalbumin and 1 ml. of Bordetella pertussis suspension ("Vaxicoq" Merieux 3×10^10 organisms/ml). After 14 days, the animals are exsanguinated and the blood is centrifuged. The antiserum thus obtained is stored at […].
Non-sensitised rats were injected with in each case 0.1 ml. of antiserum into the skin at in each case four different sites on their shaven backs. After 72 hours, a solution of the test compound, or, for comparison, only the solvent, is administered orally, and 10 minutes later 5 mg. of ovoalbumin and 5 mg. of blue dye (Evans blue) in 0.9% strength sodium chloride solution are administered intraperitoneally. After 30 minutes, the animals are sacrificed and the diameters of the blue spots formed at the sites injected with the antiserum are measured. The inhibiting effect of the test substance is determined from the size of the blue spots which occur. […]
Take `O=c1c2ccccc2n(-c2ccccc2)n1CCCN1CCN(c2ccc(F)cc2)CC1` [Example 15]: the ED50 turned out to be 10.6 mg/kg. The same measure, in the same setting: the figure for `COc1ccc2c(c1)c(=O)n(CCCCN1CCN(c3cc(C)ccn3)CC1)n2-c1ccccc1` [Example 28] is 5.7 mg/kg; for `Cc1ccnc(N2CCN(CCCn3c(=O)c4ccccc4n3-c3ccccc3)CC2)c1` [Example 21] it is 19.2 mg/kg. On the same count and under the same terms, the figure for `Cc1ccnc(N2CCN(CCCCn3c(=O)c4ccccc4n3-c3cccc(C(F)(F)F)c3)CC2)c1` [Example 32] is 6.6 mg/kg; for `O=c1c2ccccc2n(-c2ccccc2)n1CCCCN1CCN(c2ccccn2)CC1` [Example 18] it is 25 mg/kg. The same measure, in the same setting: the figure for `COc1ccccc1N1CCN(CCCCn2c(=O)c3ccc(Cl)cc3n2-c2ccccc2)CC1` [Example 26] is 22 mg/kg; for `O=c1c2ccccc2n(-c2ccccc2)n1CCCCN1CCN(c2ccc(F)cc2)CC1` [Example 17] it is 17.9 mg/kg; for `COc1ccc2c(c1)c(=O)n(CCCCN1CCN(c3ccccc3OC)CC1)n2-c1ccccc1` [Example 29] it is 14 mg/kg. As to `O=c1c2ccccc2n(-c2ccccc2)n1CCCN1CCN(c2ccccn2)CC1` [Example 19], the ED50 is 11.5 mg/kg. Same read-out and setting: the figure for `O=c1c2ccccc2n(-c2ccccc2)n1CCCCN1CCN(c2ccccc2)CC1` [Example 12] is 22 mg/kg.

Still in this assay, the particulars now being: oral, 10 minutes before intraperitoneal ovoalbumin and Evans blue, blue spot diameter after 30 minutes.
Take `Cc1ccnc(N2CCN(CCCCn3c(=O)c4ccccc4n3-c3ccccc3)CC2)c1` [Example 20]: the “P.C.A. Inhibition ED50” value stood at 7.5 mg/kg. For the molecule `Cc1ccnc(N2CCN(CCCCn3c(=O)c4ccccc4n3-c3ccccc3)CC2)c1` [Example 49], the “P.C.A. Inhibition ED50” value came out at 15.5 mg/kg.

The record behind these values is patent US4448777A, “1-Phenylindazole-3-one compounds, process and intermediates for their preparation, and pharmaceutical compositions containing same” (Kali-Chemie Pharma GmbH, priority 1981, dated 1984).
